Measured values from the supplement of paper PMC10307832.

Legend:
Test in all cases: relative viability (nuclei count vs DMSO), 5 days (fraction); higher = more cells survive
[1] = compound: C1CC1C(=O)NC2=NNC3=C2C=CC(=C3)C4=CC(=CC=C4)C(=O)NC5CC5 [XMD13-2] + CC(=O)Nc1cccc(-n2c(=O)n(C3CC3)c(=O)c3c(Nc4ccc(I)cc4F)n(C)c(=O)c(C)c32)c1 [Trametinib] (partner 0.02 µM)
Outline: (§1)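 A single step with final 0.05% Triton X-100, 1% formaldehyde and 1 ug/ml Hoechst fixed the cells and stained nuclei 5 days after treatment. Lung cancer cell lines in 1536-well plates had been treated by pin tool the day after seeding with one drug alone or a fixed anchor-drug dose plus five library-drug doses (not always all listed) in √10 steps, and nuclei were counted on 4× images. Relative viability is the ratio of nuclei in treated wells to nuclei in vehicle wells, taken as the median of duplicate plates.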

[2] = compound: C1CC1C(=O)NC2=NNC3=C2C=CC(=C3)C4=CC(=CC=C4)C(=O)NC5CC5 [XMD13-2] + CC(C)C[C@H](NC(=O)[C@H](Cc1ccccc1)NC(=O)c1cnccn1)B(O)O [Bortezomib] (partner 0.002 µM)
Outline: as §1

[3] = compound: Cc1ccc(C(=O)Nc2cccc(C(F)(F)F)c2)cc1Nc1cncc(C(N)=O)c1 [ALW-II-49-7] + CS(=O)(=O)N1CCN(Cc2cc3nc(-c4cccc5[nH]ncc45)nc(N4CCOCC4)c3s2)CC1 [Pictilisib] (partner 1 µM)
Outline: as §1

[4] = compound: C1CC1C(=O)NC2=NNC3=C2C=CC(=C3)C4=CC(=CC=C4)C(=O)NC5CC5 [XMD13-2] + C[C@@H](Oc1cc(-c2cnn(C3CCNCC3)c2)cnc1N)c1c(Cl)ccc(F)c1Cl [Crizotinib] (partner 1 µM)
Outline: as §1

Row | Cell Line | relative viability ([1]; first compound 0.05 µM) | relative viability ([1]; first compound 0.1581 µM) | relative viability ([1]; first compound 0.5 µM) | relative viability ([1]; first compound 1.581 µM) | relative viability ([1]; first compound 5 µM) | relative viability ([2]; first compound 0.05 µM) | relative viability ([2]; first compound 0.1581 µM) | relative viability ([2]; first compound 0.5 µM) | relative viability ([2]; first compound 1.581 µM) | relative viability ([2]; first compound 5 µM) | relative viability ([3]; first compound 0.08 µM) | relative viability ([3]; first compound 0.253 µM) | relative viability ([3]; first compound 0.8 µM) | relative viability ([3]; first compound 8 µM) | relative viability ([4]; first compound 0.05 µM) | relative viability ([4]; first compound 0.1581 µM) | relative viability ([4]; first compound 0.5 µM) | relative viability ([4]; first compound 1.581 µM) | relative viability ([4]; first compound 5 µM) | relative viability ([3]; first compound 2.53 µM)
1 | NCI-H661 | 0.538 | 0.614 | 0.665 | 0.615 | 0.409 | 0.86 | 0.805 | 0.846 | 0.626 | 0.587 | 0.377 | 0.345 | 0.348 | 0.351 | 0.985 | 1.02 | 0.864 | 0.887 | 0.875 | 
2 | NCI-H520 | 0.7 | 0.7 | 0.723 | 0.563 | 0.396 | 0.978 | 0.802 | 0.66 | 0.329 | 0.365 | 0.234 | 0.302 |  | 0.259 | 0.962 | 0.681 | 0.682 | 0.672 | 0.403 | 0.264
3 | ChaGo-K-1 | 0.937 | 0.89 | 0.959 | 0.847 | 0.835 | 1.09 | 1.02 | 1.02 |  | 0.911 | 0.661 | 1.04 | 0.818 | 0.442 | 1.26 | 1.08 | 1.25 |  | 1.14 | 1.19
4 | NCI-H2085 | 0.62 | 0.568 | 0.472 | 0.5 | 0.514 | 1.09 | 1.07 | 1.15 | 0.93 | 1.1 | 0.499 | 0.496 | 0.445 | 0.537 | 1.09 | 0.901 | 0.877 | 0.736 | 0.826 | 0.5
5 | NCI-H1651 | 0.909 | 0.843 | 0.789 | 0.869 | 0.834 | 1.02 | 0.914 | 0.946 | 0.92 | 0.965 | 0.525 | 0.38 | 0.329 | 0.572 | 0.946 | 0.811 | 0.886 | 0.898 | 0.863 | 0.491
6 | RERF-LC-KJ | 0.984 | 0.83 | 0.889 | 0.8 | 0.782 | 1.08 | 1.05 | 1.2 | 0.97 | 1.14 | 0.599 | 0.557 | 0.608 | 0.624 | 0.865 | 0.85 | 0.816 | 0.771 | 0.801 | 0.542
7 | NCI-H1755 | 0.821 | 0.714 | 0.722 | 0.754 | 0.697 | 0.992 | 1.02 | 0.984 | 0.934 | 1.03 | 0.377 | 0.531 | 0.421 | 0.307 | 0.982 | 0.85 | 0.861 | 0.856 | 0.922 | 0.352
8 | NCI-H2126 | 0.571 | 0.55 | 0.588 | 0.561 | 0.531 | 1.16 | 1.09 | 1.18 | 1.05 | 1.13 | 0.493 | 0.473 | 0.514 | 0.502 | 1.08 | 0.979 | 1.04 | 0.998 | 1.06 | 0.471
9 | EPLC-272H | 0.289 | 0.311 | 0.301 | 0.257 | 0.271 | 0.747 | 0.886 | 0.855 | 0.856 | 0.871 | 0.258 | 0.359 | 0.328 | 0.29 | 1.02 | 0.76 | 1.09 | 0.802 | 0.25 | 0.37
10 | NCI-H1975 | 0.27 | 0.327 | 0.375 | 0.358 | 0.382 | 0.45 | 0.384 | 0.345 | 0.392 | 0.445 | 0.282 | 0.308 | 0.232 | 0.281 | 1.21 | 1.02 | 0.91 | 0.954 | 1.14 | 0.287
11 | NCI-H3122 | 0.251 | 0.198 | 0.205 | 0.235 | 0.214 | 1.06 | 1.05 | 1.02 | 1.1 | 0.985 | 0.695 | 0.458 | 0.614 | 0.971 | 0.308 | 0.289 | 0.267 | 0.251 | 0.249 | 0.708
12 | COR-L 105 | 0.423 | 0.466 | 0.432 | 0.476 | 0.393 | 1.06 | 0.953 | 0.737 | 0.905 | 0.75 | 0.543 | 0.419 | 0.387 | 0.422 | 1 | 0.843 | 0.881 | 0.701 | 0.927 | 0.344
13 | BEN | 1.11 | 1 | 1.21 | 0.991 | 1.07 | 1.2 | 0.83 | 0.847 | 0.712 | 0.801 | 0.56 | 0.592 | 0.608 | 0.567 | 0.919 | 0.913 | 0.852 | 0.989 | 0.917 | 
14 | NCI-H1915 | 0.392 | 0.289 | 0.318 | 0.284 | 0.35 | 1.06 | 1.01 | 1.01 | 0.979 | 1.01 | 0.945 | 1.18 | 0.966 | 0.645 | 0.966 | 0.931 | 0.902 | 0.967 | 0.941 | 0.818
15 | NCI-H650 | 1.37 | 1.02 | 1.05 | 0.917 | 0.991 | 0.932 | 0.757 | 0.983 | 0.683 | 0.993 | 0.893 | 0.873 | 0.763 | 0.528 | 0.838 | 0.836 | 0.803 | 0.638 | 0.74 | 0.39
16 | NCI-H1650 | 0.852 | 0.663 | 0.65 | 0.526 | 0.695 | 0.22 | 0.201 | 0.198 | 0.195 | 0.191 | 0.583 | 0.5 | 0.581 | 0.6 | 1.31 | 0.861 | 1.02 | 0.989 | 1.16 | 0.618
